According to ChEMBL document CHEMBL4828770, “Structural and Activity Relationships of 6-Sulfonyl-8-Nitrobenzothiazinones as Antitubercular Agents” (J Med Chem, 2021):
The source made the active and inactive calls. The calls are words filed in the database; no cut-off is given here.

Columns and labels:
[1] = test system: Mycobacterium tuberculosis; experiment: Antimycobacterial activity against Mycobacterium tuberculosis H37Rv ACTT 25618 assessed as inhibition of visible growth incubated for 7 days by micro plate alamar blue assay; format: functional; settings: H37Rv ACTT 25618, 168 h, time 7 day
[2] = Metabolic stability in human liver microsomes assessed as half life in presence of NADPH by LC/MS analysis; format: ADME, Microsome
[3] = Metabolic stability in human liver microsomes assessed as clearance in presence of NADPH by LC/MS analysis; format: ADME, Microsome; settings: read-out: CLH
[4] = target: T1, Decaprenylphosphoryl-beta-D-ribose oxidase (Mycobacterium tuberculosis (strain ATCC 25618 / H37Rv), UniProt P9WJF1); experiment: Inhibition of Mycobacterium tuberculosis recombinant DprE1 expressed in Escherichia coli assessed as formation of resorufin using FPR as substrate by Amplex Red […] coupled assay
T1 sequence (P9WJF1 whole entry): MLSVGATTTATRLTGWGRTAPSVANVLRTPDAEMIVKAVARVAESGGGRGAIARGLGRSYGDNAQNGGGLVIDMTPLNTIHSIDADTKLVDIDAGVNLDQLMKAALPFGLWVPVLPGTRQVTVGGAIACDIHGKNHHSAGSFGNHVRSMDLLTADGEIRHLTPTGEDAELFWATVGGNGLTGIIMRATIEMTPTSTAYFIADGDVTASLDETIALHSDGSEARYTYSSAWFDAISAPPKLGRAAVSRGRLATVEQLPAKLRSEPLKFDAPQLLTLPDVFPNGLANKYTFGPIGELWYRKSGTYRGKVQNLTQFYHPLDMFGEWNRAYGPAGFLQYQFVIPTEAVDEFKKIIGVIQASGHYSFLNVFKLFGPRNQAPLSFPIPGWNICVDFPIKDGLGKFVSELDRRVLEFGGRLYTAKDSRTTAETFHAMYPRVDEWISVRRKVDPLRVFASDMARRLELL

HepG2 = experiment: Cytotoxicity against human HepG2 cells assessed as cell viability incubated for 48 hrs by CCK-8 assay; format: cell-based; settings: hepg2, 48 h
[5] = target: T2, Decaprenylphosphoryl-beta-D-ribose oxidase (Mycobacterium tuberculosis (strain ATCC 25618 / H37Rv)) (UniProt P9WJF1); experiment: Inhibition of Mycobacterium tuberculosis H37Rv DprE1 assessed as increase in trehalose dimycolates accumulation at 100 x MIC incubated for 24 hrs using [14C]acetate by TLC based metabolic labelling assay
T2 sequence (whole entry): T1 sequence (P9WJF1 whole entry)

[6] = target: T2, Decaprenylphosphoryl-beta-D-ribose oxidase (Mycobacterium tuberculosis (strain ATCC 25618 / H37Rv)); experiment: Inhibition of Mycobacterium tuberculosis H37Rv DprE1 assessed as increase in trehalose monomycolates accumulation at 100 x MIC incubated for 24 hrs using [14C]acetate by TLC based metabolic labelling assay

| Structure (SMILES) | MIC [1] | also measured |
| --- | --- | --- |
| C[C@H](c1cn(-c2ccccc2)nn1)N(C)c1nc(=O)c2cc(S(C)(=O)=O)cc([N+](=O)[O-])c2s1 | > 4.2 µM | – |
| CN(Cc1cn(-c2cccc(Br)c2)nn1)c1nc(=O)c2cc(S(C)(=O)=O)cc([N+](=O)[O-])c2s1 | 0.044 µM | – |
| CN(Cc1nnc(-c2ccc(F)c(F)c2)s1)c1nc(=O)c2cc(S(C)(=O)=O)cc([N+](=O)[O-])c2s1 | 0.031 µM | – |
| CN(Cc1cn(-c2cnoc2)nn1)c1nc(=O)c2cc(S(C)(=O)=O)cc([N+](=O)[O-])c2s1 | 0.065 µM | – |
| CN(Cc1cn(-c2cc(F)cc(F)c2)nn1)c1nc(=O)c2cc(S(C)(=O)=O)cc([N+](=O)[O-])c2s1 | 0.022 µM | – |
| CN(Cc1cn(-c2cccnc2)nn1)c1nc(=O)c2cc(S(C)(=O)=O)cc([N+](=O)[O-])c2s1 | 0.533 µM | – |
| CN(Cc1cn(-c2cccc(Cl)c2)nn1)c1nc(=O)c2cc(S(C)(=O)=O)cc([N+](=O)[O-])c2s1 | 0.089 µM | – |
| CN(c1nc(=O)c2cc(S(C)(=O)=O)cc([N+](=O)[O-])c2s1)C1(c2cn(-c3ccccc3)nn2)CC1 | > 4 µM | – |
| CN(Cc1cn(-c2c(F)cccc2F)nn1)c1nc(=O)c2cc(S(C)(=O)=O)cc([N+](=O)[O-])c2s1 | 0.28 µM | – |
| CN(Cc1cn(-c2ccc(F)cc2F)nn1)c1nc(=O)c2cc(S(C)(=O)=O)cc([N+](=O)[O-])c2s1 | 0.024 µM | – |
| CN(Cc1coc(-c2ccccc2)n1)c1nc(=O)c2cc(S(C)(=O)=O)cc([N+](=O)[O-])c2s1 | 0.021 µM | half-life [2]: 21 min; CLint scaled [3]: 82.7 mL/min/kg; IC50 [4]: 940 nM |
| CN(Cc1coc(C2CCCCC2)n1)c1nc(=O)c2cc(S(C)(=O)=O)cc([N+](=O)[O-])c2s1 | 0.433 µM | – |
| CN(Cc1coc(-c2ccc(F)cc2)n1)c1nc(=O)c2cc(S(C)(=O)=O)cc([N+](=O)[O-])c2s1 | 0.031 µM | – |
| C[C@@H](c1cn(-c2ccccc2)nn1)N(C)c1nc(=O)c2cc(S(C)(=O)=O)cc([N+](=O)[O-])c2s1 | 0.252 µM | – |
| CN(Cc1nnc(-c2ccc(F)cc2)s1)c1nc(=O)c2cc(S(C)(=O)=O)cc([N+](=O)[O-])c2s1 | 0.047 µM | – |
| CN(Cc1cn(-c2cccc(C(F)(F)F)c2)nn1)c1nc(=O)c2cc(S(C)(=O)=O)cc([N+](=O)[O-])c2s1 | 0.044 µM | – |
| CN(Cc1cn(-c2ccc(F)cc2)nn1)c1nc(=O)c2cc(S(C)(=O)=O)cc([N+](=O)[O-])c2s1 | 0.024 µM | – |
| CN(Cc1nnc(-c2ccc(F)cc2F)o1)c1nc(=O)c2cc(S(C)(=O)=O)cc([N+](=O)[O-])c2s1 | 0.045 µM | – |
| CN(Cc1cn(-c2cccc(I)c2)nn1)c1nc(=O)c2cc(S(C)(=O)=O)cc([N+](=O)[O-])c2s1 | 0.055 µM | – |
| CN(Cc1csc(-c2cccc(F)c2)n1)c1nc(=O)c2cc(S(C)(=O)=O)cc([N+](=O)[O-])c2s1 | 0.024 µM | – |
| CN(Cc1nnc(-c2cc(F)cc(F)c2)o1)c1nc(=O)c2cc(S(C)(=O)=O)cc([N+](=O)[O-])c2s1 | 0.022 µM | – |
| CN(Cc1cn(C2CCCCC2)nn1)c1nc(=O)c2cc(S(C)(=O)=O)cc([N+](=O)[O-])c2s1 | 0.047 µM | – |
| CN(Cc1nnc(-c2ccc(F)cc2F)s1)c1nc(=O)c2cc(S(C)(=O)=O)cc([N+](=O)[O-])c2s1 | 0.023 µM | – |
| CN(Cc1cn(-c2ccccc2F)nn1)c1nc(=O)c2cc(S(C)(=O)=O)cc([N+](=O)[O-])c2s1 | 0.031 µM | – |
| CN(Cc1cn(-c2cccc(C#N)c2)nn1)c1nc(=O)c2cc(S(C)(=O)=O)cc([N+](=O)[O-])c2s1 | 0.048 µM | – |
| Cc1ccc(-n2cc(CN(C)c3nc(=O)c4cc(S(C)(=O)=O)cc([N+](=O)[O-])c4s3)nn2)cc1 | 0.115 µM | – |

| Structure (SMILES) | MIC [1] | also measured |
| --- | --- | --- |
| CN(Cc1nnc(-c2cc(F)cc(F)c2)s1)c1nc(=O)c2cc(S(C)(=O)=O)cc([N+](=O)[O-])c2s1 | 0.023 µM | – |
| CN(Cc1cn(-c2ccccc2)nn1)c1nc(=O)c2cc(S(C)(=O)=O)cc([N+](=O)[O-])c2s1 | 0.0006 µM | Activity (HepG2): Non-Toxic; Activity [5]: Active; Activity [6]: Active; half-life [2]: 53.7 min; CLint scaled [3]: 32.4 mL/min/kg; IC50 [4]: 780 nM |
| CN(Cc1csc(-c2ccccc2)n1)c1nc(=O)c2cc(S(C)(=O)=O)cc([N+](=O)[O-])c2s1 | 0.023 µM | half-life [2]: 16.2 min; CLint scaled [3]: 107 mL/min/kg |
| Cc1cccc(-n2cc(CN(C)c3nc(=O)c4cc(S(C)(=O)=O)cc([N+](=O)[O-])c4s3)nn2)c1 | 0.1 µM | – |
| CCS(=O)(=O)c1cc([N+](=O)[O-])c2sc(N3CCN(CC4CCCCC4)CC3)nc(=O)c2c1 | < 0.001 µM | – |
| CN(Cc1nnc(-c2cccc(F)c2)s1)c1nc(=O)c2cc(S(C)(=O)=O)cc([N+](=O)[O-])c2s1 | 0.045 µM | – |
| O=c1nc(N2CCN(CC3CCCCC3)CC2)sc2c([N+](=O)[O-])cc(C(F)(F)F)cc12 [MACOZINONE] | < 0.2 ng/mL | half-life [2]: 76.3 min; CLint scaled [3]: 22.8 mL/min/kg |
| CN(Cc1nnc(-c2ccccc2)s1)c1nc(=O)c2cc(S(C)(=O)=O)cc([N+](=O)[O-])c2s1 | 0.037 µM | half-life [2]: 13.2 min; CLint scaled [3]: 128 mL/min/kg |
| CN(Cc1nnc(-c2ccccc2)o1)c1nc(=O)c2cc(S(C)(=O)=O)cc([N+](=O)[O-])c2s1 | 0.03 µM | Activity (HepG2): Non-Toxic; Activity [5]: Active; Activity [6]: Active; half-life [2]: 45.9 min; CLint scaled [3]: 37.8 mL/min/kg; IC50 [4]: 2100 nM |
| CN(Cc1nnc(-c2ccc(F)cc2)o1)c1nc(=O)c2cc(S(C)(=O)=O)cc([N+](=O)[O-])c2s1 | 0.061 µM | – |
| CN(Cc1ccccc1)c1nc(=O)c2cc(S(C)(=O)=O)cc([N+](=O)[O-])c2s1 | 0.253 µM | – |
| CCN(Cc1cn(-c2ccccc2)nn1)c1nc(=O)c2cc(S(C)(=O)=O)cc([N+](=O)[O-])c2s1 | 0.201 µM | – |
| COc1cccc(-n2cc(CN(C)c3nc(=O)c4cc(S(C)(=O)=O)cc([N+](=O)[O-])c4s3)nn2)c1 | 0.199 µM | – |
| CN(Cc1cn(-c2cccc(F)c2)nn1)c1nc(=O)c2cc(S(C)(=O)=O)cc([N+](=O)[O-])c2s1 | 0.014 µM | – |
| CN(Cc1cn(Cc2cnoc2)nn1)c1nc(=O)c2cc(S(C)(=O)=O)cc([N+](=O)[O-])c2s1 | > 2 µM | – |
| CN(Cc1cn(-c2cc(F)ccc2F)nn1)c1nc(=O)c2cc(S(C)(=O)=O)cc([N+](=O)[O-])c2s1 | 0.011 µM | – |
| CN(Cc1nnc(-c2cccc(F)c2)o1)c1nc(=O)c2cc(S(C)(=O)=O)cc([N+](=O)[O-])c2s1 | 0.049 µM | – |
| CN(Cc1ccc2c(c1)OCCO2)c1nc(=O)c2cc(S(C)(=O)=O)cc([N+](=O)[O-])c2s1 | 0.066 µM | – |
| CC(C)S(=O)(=O)c1cc([N+](=O)[O-])c2sc(N3CCN(CC4CCCCC4)CC3)nc(=O)c2c1 | < 0.001 µM | – |
| CN(Cc1cn(Cc2ccccc2)nn1)c1nc(=O)c2cc(S(C)(=O)=O)cc([N+](=O)[O-])c2s1 | 0.309 µM | – |
| CN(CCN(C)c1nc(=O)c2cc(S(C)(=O)=O)cc([N+](=O)[O-])c2s1)CC1CCCCC1 | 0.148 µM | – |
| CN(Cc1cn(-c2ccc(F)c(F)c2)nn1)c1nc(=O)c2cc(S(C)(=O)=O)cc([N+](=O)[O-])c2s1 | 0.022 µM | – |
| CN(Cc1nnc(-c2ccc(F)c(F)c2)o1)c1nc(=O)c2cc(S(C)(=O)=O)cc([N+](=O)[O-])c2s1 | 0.043 µM | – |
| CS(=O)(=O)c1cc([N+](=O)[O-])c2sc(N3CCN(CC4CCCCC4)CC3)nc(=O)c2c1 | – | half-life [2]: 25.8 min; CLint scaled [3]: 89.8 mL/min/kg |
| CN(Cc1csc(-c2ccc(F)cc2)n1)c1nc(=O)c2cc(S(C)(=O)=O)cc([N+](=O)[O-])c2s1 | 0.057 µM | – |
